In ChEMBL document CHEMBL1201862, “PubChem BioAssay data set” (2004):
Active and inactive are the calls of the source. For most assays here, no stated cut-off is given here; in the data, actives have a measured EC50 and inactives only a lower limit.

Columns and labels:
[1] = tested on: Streptococcus sp. 'group A'; assay: Streptococcus pyogenes SK(-)GAS viability under kanamycin – luminescence, BacTiterGlo, confirmation, counter-screen for streptokinase expression inhibitor project, dose response (AID 1900); format: functional, organism-based
Streptococcus = assay: GAS UMAA2166 growth inhibition – luminescence, BacTiterGlo, counter-screen for streptokinase expression inhibitor project, dose response (AID 1915); format: functional, organism-based;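 further: potency for reduction of bacterial viability or growth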
[2] = Trypanosoma cruzi growth suppression in host cells – NIH3T3 host cells, beta-gal luminescence, confirmation (AID 2044); format: functional, cell-based;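 further: intracellular parasites grown in NIH/3T3 mouse fibroblasts as host cells; luminescent beta-galactosidase reporter signal from transgenic T. cruzi replicating inside host cells; inhibitors lower the luminescence signal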
[3] = NIH3T3 cell viability loss – ATP luminescence, mouse fibroblasts, counter-screen, dose response (AID 2010); format: functional, cell-based;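 further: cells exposed to compound for about 90 hours before reading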
Cytochrome P450 1A2 = biological target: T1, Cytochrome P450 1A2 (Homo sapiens, UniProt P05177);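 further: PubChem cytochrome P450 panel assay, CYP1A2 panel member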
T1 sequence (P05177 whole entry): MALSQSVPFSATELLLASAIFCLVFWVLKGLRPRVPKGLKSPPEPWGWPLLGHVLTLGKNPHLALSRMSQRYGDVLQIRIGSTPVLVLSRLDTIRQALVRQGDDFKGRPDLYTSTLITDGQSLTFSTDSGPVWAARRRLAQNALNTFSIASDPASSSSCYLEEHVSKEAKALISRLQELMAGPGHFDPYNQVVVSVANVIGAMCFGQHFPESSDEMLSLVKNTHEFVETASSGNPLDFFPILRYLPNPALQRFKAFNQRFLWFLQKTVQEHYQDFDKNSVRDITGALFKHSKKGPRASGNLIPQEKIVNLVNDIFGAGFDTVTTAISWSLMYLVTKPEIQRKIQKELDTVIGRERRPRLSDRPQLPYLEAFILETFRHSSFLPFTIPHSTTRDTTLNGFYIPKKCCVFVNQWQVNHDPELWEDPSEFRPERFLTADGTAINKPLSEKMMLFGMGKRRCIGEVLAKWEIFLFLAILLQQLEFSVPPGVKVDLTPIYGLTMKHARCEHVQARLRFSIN

SMILES	EC50 [2]	EC50 [3]	AC50 (Cytochrome P450 1A2)	further results
CCC[C@]12CN3C[C@](CCC)(CN(C1)C3c1ccccn1)C2=O (stereo partly drawn)	–	–	–	EC50 [1]: 43.8 µM (active); EC50 (Streptococcus): > 150 µM (not active)
CCOc1ccccc1CN1CCN(Cc2[nH]c3ccccc3c2C)CC1CCO (stereo not drawn)	0.204 µM (active)	> 60 µM (not active)	–	–
CN1CCc2c(sc(NC(=O)c3cc4cc([N+](=O)[O-])ccc4s3)c2C(N)=O)C1	1.73 µM (active)	14.3 µM (active)	–	–
O=C(c1ccncc1)N1CCC2(CCCN(c3cccc(-c4ccccc4)c3)C2)CC1	–	–	12.6 µM (inconclusive)	–
COc1cccc(-c2nnc(NC(=O)c3ccc(S(=O)(=O)N4CC(C)OC(C)C4)cc3)o2)c1 (stereo not drawn)	–	–	–	EC50 [1]: 1.3 µM (active); EC50 (Streptococcus): 2.15 µM (active)
COc1ccc(Nc2nc(NC(C)(C)C)nc(N3CCOCC3)n2)c(OC)c1	1.59 µM (active)	> 60 µM (not active)	–	–
O=C(CC(NS(=O)(=O)c1ccc(Cl)cc1)c1ccco1)NCc1ccco1 (stereo not drawn)	–	–	25.1 µM (inconclusive)	–
Oc1nc2cc3c(cc2cc1CN(CCc1ccccc1)Cc1nnnn1CC1CCCO1)OCO3 (stereo not drawn)	–	–	–	EC50 [1]: > 150 µM (not active); EC50 (Streptococcus): > 150 µM (not active)
N#CC1=C(N)OC2=C(C(=O)CC(c3ccccc3)C2)C1c1cccnc1 (stereo not drawn)	0.111 µM (active)	> 30 µM (not active)	–	–
CC1=C/C(=N\NC(=S)NCc2ccccc2)CC1	2.88 µM (active)	> 60 µM (not active)	–	–
CN(C)CCCN1c2ccccc2C(C)(C)c2ccccc21 [DIMETACRINE]	–	–	5.01 µM (inconclusive)	–
Cc1c(Cl)cnn1CC(=O)NC1C(=O)N2C(C(=O)O)=C(CSc3nnnn3C)CSC12 (stereo not drawn)	–	–	–	EC50 [1]: 0.1 µM (active); EC50 (Streptococcus): 0.283 µM (active)
Cc1ccc(-n2c(SCC(=O)c3c(N)n(C)c(=O)n(C)c3=O)nc3sc4c(c3c2=O)CCCC4)c(C)c1	2.1 µM (active)	50.5 µM (active)	–	–
CCCCC(C=O)NC(=O)C(CC(C)C)NC(=O)OCc1ccccc1 (stereo not drawn)	–	–	31.6 µM (inconclusive)	–
CCSc1nnc(NC(=O)COc2ccc3ccccc3c2)s1	–	–	10 µM (inconclusive)	–
CCn1c(SCC(=O)N/N=C/C=C\c2ccccc2[N+](=O)[O-])nnc1-c1ccccc1	–	–	28.2 µM (inconclusive)	–
COc1ccc(OCC(=O)Nc2ccc(Cl)cc2C(=O)c2ccccc2)cc1	–	–	3.55 µM (inconclusive)	–
O=[N+]([O-])c1ccc(N2CCN(S(=O)(=O)c3ccc(Cl)cc3)CC2)cc1NCc1cccnc1	1.38 µM (active)	15.4 µM (active)	–	–
CCOC(=O)N1CCN(c2cc(N3CCN(CC)CC3)c(F)cc2[N+](=O)[O-])CC1C (stereo not drawn)	0.184 µM (active)	> 60 µM (inconclusive)	–	–
CCSc1nc2nc(C)cc(C)n2n1	–	–	12.6 µM (inconclusive)	–
O=C(c1cc(COc2cccc3cnccc23)on1)N1CCC(c2ccccc2Cl)C1 (stereo not drawn)	1.57 µM (active)	> 60 µM (not active)	–	–
OCCCNc1[nH]cnc2nncc1-2	–	–	6.31 µM (inconclusive)	–
COc1ccccc1CN1CC[C@@]2(CCCN(C(=O)c3cc(C(F)(F)F)cc(C(F)(F)F)c3)C2)C1	–	–	15.8 µM (inconclusive)	–
COc1cc(/C=C(/C#N)c2ccc(C)cc2)ccc1Oc1ccc([N+](=O)[O-])cn1	1.54 µM (active)	> 60 µM (not active)	–	–
CCOC(=O)c1ccc(NC(=S)N(Cc2cccnc2)Cc2ccco2)cc1	0.631 µM (active)	> 60 µM (not active)	–	–
Cc1cc(C)c(-c2csc(NC(=O)COC(=O)c3ccc4c(c3)OCO4)n2)c(C)c1	4.69 µM (active)	> 60 µM (not active)	–	–
OC(COCC(F)(F)C(F)(F)C(F)(F)C(F)F)Cn1c2ccc(Cl)cc2c2cc(Cl)ccc21 (stereo not drawn)	–	–	–	EC50 [1]: 2.2 µM (active); EC50 (Streptococcus): 2.62 µM (active)
Cc1ccc2nc(N(CCCN(C)C)C(=O)c3ccc(Br)s3)sc2c1	0.102 µM (active)	> 60 µM (not active)	–	–
Cc1c([N+](=O)[O-])nnn1-c1cc(Cl)cc(Cl)c1	1.86 µM (active)	> 30 µM (not active)	–	–
